{
  "source": "patent US11439647B2",
  "about": "(Janssen Pharmaceutica NV, priority 2020, dated 2022)",
  "origin": "cited, not measured here",
  "data": [
    {"smiles": "CCCCCCCCCCCCCCCC(=O)OC1CCCn2c1nc(C)c(CCN1CCC(c3noc4cc(F)ccc34)CC1)c2=O", "note": "(racemic) [paliperidone palmitate, (±)-3-[2-[4-(6-fluoro-1,2-benzisoxazol-3-yl)-1-piperidinyl]ethyl]-6,7,8,9-tetrahydro-2-methyl-4-oxo-4H-pyrido[1,2-c]pyrimidin-9-yl hexadecanoate]", "values": [
      {"measurement": "water solubility", "value": "extreme low"}
    ]}
  ]
}
